{"source": "PubChem BioAssay (NCI)", "experiment_in_all_cases": "growth of human tumour cells (NCI), 48 h", "key": {"[1]": {"system": "786-0 renal"}, "[2]": {"system": "A498 renal"}, "[3]": {"system": "A549 NSCLC"}, "[4]": {"system": "ACHN renal"}, "[5]": {"system": "BT-549 breast"}, "[6]": {"system": "CAKI-1 renal"}, "[7]": {"system": "CCRF-CEM leukemia"}, "[8]": {"system": "COLO 205 colon"}, "[9]": {"system": "DU-145 prostate"}, "[10]": {"system": "EKVX NSCLC"}, "[11]": {"system": "HCC-2998 colon"}, "[12]": {"system": "HCT-116 colon"}, "[13]": {"system": "HCT-15 colon"}, "[14]": {"system": "HL-60(TB) leukemia"}, "[15]": {"system": "HOP-62 NSCLC"}, "[16]": {"system": "HOP-92 NSCLC"}, "[17]": {"system": "HS 578T breast"}, "[18]": {"system": "HT29 colon"}, "[19]": {"system": "IGROV1 ovarian"}, "[20]": {"system": "K-562 leukemia"}, "[21]": {"system": "KM12 colon"}, "[22]": {"system": "LOX IMVI melanoma"}, "[23]": {"system": "M14 melanoma"}, "[24]": {"system": "MALME-3M melanoma"}, "[25]": {"system": "MCF7 breast"}, "[26]": {"system": "MDA-MB-435"}, "[27]": {"system": "MDA-MB-468 breast"}}, "note": "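Assay format: 96-well plates, 48-hour exposure. The concentration for 50% growth inhibition is given as GI50. TGI denotes the concentration required for complete inhibition of growth.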"}
{"smiles": "CN(C)c1nc(NCCNS(=O)(=O)c2ccc(C3=Nc4c(N)nc(N)nc4NC(c4ccc(C(F)(F)F)cc4)C3)cc2)nc(Nc2ccc(F)cc2)n1", "note": "(centres undefined)", "values": [{"measurement": "GI50", "setting": "[1]", "result": 10.1, "unit": "µM"}, {"measurement": "TGI", "setting": "[1]", "result": 39.8, "unit": "µM"}, {"measurement": "GI50", "setting": "[2]", "result": 22.2, "unit": "µM"}, {"measurement": "TGI", "setting": "[2]", "result": 77.4, "unit": "µM"}, {"measurement": "GI50", "setting": "[3]", "result": 55, "unit": "µM"}, {"measurement": "TGI", "setting": "[3]", "result": "> 86", "unit": "µM"}, {"measurement": "GI50", "setting": "[4]", "result": "> 86", "unit": "µM"}, {"measurement": "TGI", "setting": "[4]", "result": "> 86", "unit": "µM"}, {"measurement": "GI50", "setting": "[5]", "result": 11.8, "unit": "µM"}, {"measurement": "TGI", "setting": "[5]", "result": 32.6, "unit": "µM"}, {"measurement": "GI50", "setting": "[6]", "result": 36.8, "unit": "µM"}, {"measurement": "TGI", "setting": "[6]", "result": "> 86", "unit": "µM"}, {"measurement": "GI50", "setting": "[7]", "result": 3.24, "unit": "µM"}, {"measurement": "TGI", "setting": "[7]", "result": "> 86", "unit": "µM"}, {"measurement": "GI50", "setting": "[8]", "result": 9.73, "unit": "µM"}, {"measurement": "TGI", "setting": "[8]", "result": 21.8, "unit": "µM"}, {"measurement": "GI50", "setting": "[9]", "result": 38.5, "unit": "µM"}, {"measurement": "TGI", "setting": "[9]", "result": "> 86", "unit": "µM"}, {"measurement": "GI50", "setting": "[10]", "result": 5.52, "unit": "µM"}, {"measurement": "TGI", "setting": "[10]", "result": "> 86", "unit": "µM"}, {"measurement": "GI50", "setting": "[11]", "result": 4.72, "unit": "µM"}, {"measurement": "TGI", "setting": "[11]", "result": 25.9, "unit": "µM"}, {"measurement": "GI50", "setting": "[12]", "result": 5.1, "unit": "µM"}, {"measurement": "TGI", "setting": "[12]", "result": "> 86", "unit": "µM"}, {"measurement": "GI50", "setting": "[13]", "result": 55.1, "unit": "µM"}, {"measurement": "TGI", "setting": "[13]", "result": "> 86", "unit": "µM"}, {"measurement": "GI50", "setting": "[14]", "result": 4.07, "unit": "µM"}, {"measurement": "TGI", "setting": "[14]", "result": "> 86", "unit": "µM"}, {"measurement": "GI50", "setting": "[15]", "result": 31.4, "unit": "µM"}, {"measurement": "TGI", "setting": "[15]", "result": "> 86", "unit": "µM"}, {"measurement": "GI50", "setting": "[16]", "result": 2990, "unit": "nM"}, {"measurement": "TGI", "setting": "[16]", "result": 16.9, "unit": "µM"}, {"measurement": "GI50", "setting": "[17]", "result": 9.03, "unit": "µM"}, {"measurement": "TGI", "setting": "[17]", "result": "> 86", "unit": "µM"}, {"measurement": "GI50", "setting": "[18]", "result": 4.88, "unit": "µM"}, {"measurement": "TGI", "setting": "[18]", "result": 18.3, "unit": "µM"}, {"measurement": "GI50", "setting": "[19]", "result": 11.2, "unit": "µM"}, {"measurement": "TGI", "setting": "[19]", "result": "> 86", "unit": "µM"}, {"measurement": "GI50", "setting": "[20]", "result": 3.51, "unit": "µM"}, {"measurement": "TGI", "setting": "[20]", "result": "> 86", "unit": "µM"}, {"measurement": "GI50", "setting": "[21]", "result": 6.14, "unit": "µM"}, {"measurement": "TGI", "setting": "[21]", "result": "> 86", "unit": "µM"}, {"measurement": "GI50", "setting": "[22]", "result": 3.14, "unit": "µM"}, {"measurement": "TGI", "setting": "[22]", "result": 12, "unit": "µM"}, {"measurement": "GI50", "setting": "[23]", "result": 7.87, "unit": "µM"}, {"measurement": "TGI", "setting": "[23]", "result": "> 86", "unit": "µM"}, {"measurement": "GI50", "setting": "[24]", "result": 11.3, "unit": "µM"}, {"measurement": "TGI", "setting": "[24]", "result": 24.2, "unit": "µM"}, {"measurement": "GI50", "setting": "[25]", "result": 2870, "unit": "nM"}, {"measurement": "TGI", "setting": "[25]", "result": 21, "unit": "µM"}, {"measurement": "GI50", "setting": "[26]", "result": 9.13, "unit": "µM"}, {"measurement": "TGI", "setting": "[26]", "result": "> 86", "unit": "µM"}, {"measurement": "GI50", "setting": "[27]", "result": 2670, "unit": "nM"}, {"measurement": "TGI", "setting": "[27]", "result": 11.7, "unit": "µM"}]}
